Test results taken from ChEMBL document CHEMBL5038624, “Construction and activity evaluation of novel dual-target (SE/CYP51) anti-fungal agents containing amide naphthyl structure” (Eur J Med Chem, 2022).
In brackets after ≈: the same amount, converted by molar mass.

Legend:
Format in all cases: functional
[1] = tested on: Candida tropicalis; assay: Antifungal activity against Candida tropicalis ATCC 1369 assessed as reduction in fungal growth incubated for 72 hrs by CLSI protocol based broth microdilution method
[2] = tested on: Candida albicans; assay: Antifungal activity against Candida albicans SC5314 assessed as reduction in fungal growth incubated for 72 hrs by CLSI protocol based broth microdilution method
[3] = tested on: Aspergillus fumigatus; assay: Antifungal activity against Aspergillus fumigatus KM8001 assessed as reduction in fungal growth incubated for 72 hrs by CLSI protocol based broth microdilution method
[4] = tested on: Pichia kudriavzevii; assay: Antifungal activity against Candida krusei ATCC 6258 assessed as reduction in fungal growth incubated for 72 hrs by CLSI protocol based broth microdilution method
[5] = tested on: Nakaseomyces glabratus; assay: Antifungal activity against Candida glabrata ATCC 0001 assessed as reduction in fungal growth incubated for 72 hrs by CLSI protocol based broth microdilution method

Row | Compound | MIC50 [1] [µg/mL] | MIC50 [2] [µg/mL] | MIC50 [3] [µg/mL] | MIC50 [4] [µg/mL] | MIC50 [5] [µg/mL]
1 | O=C(NC(Cn1cncn1)c1ccccc1)c1ccc2ccccc2c1 (stereo unspecified) | 0.5 (≈ 1.46 µM) | 0.5 (≈ 1.46 µM) | 4 (≈ 11.7 µM) | 0.5 (≈ 1.46 µM) | 1 (≈ 2.92 µM)
2 | c1ccc2ccccc2c1 [NAPHTHALENE] |  | > 64 |  |  | 
3 | O=C(/C=C/c1cccc2ccccc12)NC(C(=O)Nc1ccncc1)c1ccccc1 (stereo unspecified) | 0.5 (≈ 1.23 µM) | 0.5 (≈ 1.23 µM) | > 8 | 0.5 (≈ 1.23 µM) | 0.25 (≈ 0.614 µM)
4 | O=C(NC(Cn1ccnc1)c1ccccc1)c1ccc2ccccc2c1 (stereo unspecified) | 0.5 (≈ 1.46 µM) | 0.5 (≈ 1.46 µM) | > 8 | 0.5 (≈ 1.46 µM) | 0.25 (≈ 0.732 µM)

Further compounds by falling MIC50 [1], results first:

Row | MIC50 [1] [µg/mL] | MIC50 [2] [µg/mL] | MIC50 [3] [µg/mL] | MIC50 [4] [µg/mL] | MIC50 [5] [µg/mL] | Compound
5 | 0.5 (≈ 1.19 µM) | 4 (≈ 9.49 µM) | > 8 | 2 (≈ 4.74 µM) | 2 (≈ 4.74 µM) | O=C(/C=C/c1cccc2ccccc12)NC(C(=O)NCc1cccnc1)c1ccccc1 (stereo unspecified)
6 | 0.5 (≈ 1.35 µM) | 0.5 (≈ 1.35 µM) | 4 (≈ 10.8 µM) | 0.25 (≈ 0.677 µM) | 1 (≈ 2.71 µM) | O=C(NC(Cn1ccnc1)C(=O)c1ccccc1)c1cccc2ccccc12 (stereo unspecified)
7 | 0.25 (≈ 0.679 µM) | 0.25 (≈ 0.679 µM) | > 8 | 0.5 (≈ 1.36 µM) | 0.5 (≈ 1.36 µM) | O=C(/C=C/c1ccc2ccccc2c1)NC(Cn1cncn1)c1ccccc1 (stereo unspecified)
8 | 0.25 (≈ 0.675 µM) | 0.5 (≈ 1.35 µM) | > 8 | 0.5 (≈ 1.35 µM) | 0.5 (≈ 1.35 µM) | O=C(NC(Cn1cncn1)C(=O)c1ccccc1)c1cccc2ccccc12 (stereo unspecified)
